# Laboratory results as given in BindingDB's records for doi:10.1021/jm000290u (Purdue University, 2001).
# Target: Human immunodeficiency virus 2
# Assay: In vitro inhibition of cytopathic effect was determined against HIV-2 ROD in MT-4 cells using MTT cytoprotection assay
row,Structure (SMILES),EC50 [µM]
1,"CC(C)CCCC(C)[C@H]1CCC2C3CCC4C[C@@H](CCC=C(c5cc(Cl)c(O)c(C(=O)N[C@@H](CCC(=O)O)C(=O)O)c5)c5cc(Cl)c(O)c(C(=O)N[C@@H](CCC(=O)O)C(=O)O)c5)CC[C@]4(C)C3CC[C@@]21C (stereo not given in full) [2-(3-Chloro-5-{1-[3-chloro-5-(1,3-dicarboxy-propylcarbamoyl)-4-hydroxy-phenyl]-4-[17-(1,5-dimethyl-hexyl)-10,13-dimethyl-hexadecahydro-cyclopenta[a]phenanthren-3-yl]-but-1-enyl}-2-hydroxy-benzoylamino)-pentanedioic acid]",69.6
2,"CC(C)CCCC(C)[C@H]1CCC2C3CCC4C[C@@H](CCC=C(c5cc(Cl)c(OCc6ccc(-c7cccc(C(=O)O)c7)cc6)c(C(=O)O)c5)c5cc(Cl)c(OCc6ccc(-c7cccc(C(=O)O)c7)cc6)c(C(=O)O)c5)CC[C@]4(C)C3CC[C@@]21C (stereo partly drawn) [3'',3'''-Dichloro-5'',5'''-dicarboxy-4'',4'''-di[p-(3-carboxy-phenyl)benzyloxy]-4',4'-diphenyl-3beta-(3'-buten-1-yl)cholestane]",> 95
3,"CC(C)CCCC(C)[C@H]1CCC2C3CCC4C[C@@H](CCC=C(c5cc(Cl)c(O)c(C(=O)NCCC(=O)O)c5)c5cc(Cl)c(O)c(C(=O)NCCC(=O)O)c5)CC[C@]4(C)C3CC[C@@]21C (stereo not given in full) [3-(5-{1-[3-(2-Carboxy-ethylcarbamoyl)-5-chloro-4-hydroxy-phenyl]-4-[17-(1,5-dimethyl-hexyl)-10,13-dimethyl-hexadecahydro-cyclopenta[a]phenanthren-3-yl]-but-1-enyl}-3-chloro-2-hydroxy-benzoylamino)-propionic acid]",120
4,"CC(C)CCCC(C)[C@H]1CCC2C3CCC4C[C@@H](CCC=C(c5cc(Cl)c(O)c(C(=O)O)c5)c5cc(Cl)c(O)c(C(=O)O)c5)CC[C@]4(C)C3CC[C@@]21C (stereo partly drawn) [5-{1-(3-carboxy-5-chloro-4-hydroxyphenyl)-4-[1-(1,5-dimethylhexyl)-9a,11a-dimethyl-(9aS,11aR)-perhydrocyclopenta[a]phenanthren-7-yl]-1-butenyl}-3-chloro-2-hydroxybenzoic acid]",4
5,"CC(C)CCCC(C)[C@H]1CCC2C3CCC4C[C@@H](CCC=C(c5cc(Cl)c(O)c(C(=O)N[C@@H](CC(=O)O)C(=O)O)c5)c5cc(Cl)c(O)c(C(=O)N[C@@H](CC(=O)O)C(=O)O)c5)CC[C@]4(C)C3CC[C@@]21C (stereo partly drawn) [(S)-2-(3-Chloro-5-{1-[3-chloro-5-((S)-1,2-dicarboxy-ethylcarbamoyl)-4-hydroxy-phenyl]-4-[(3S,10S,13R,17R)-17-(1,5-dimethyl-hexyl)-10,13-dimethyl-hexadecahydro-cyclopenta[a]phenanthren-3-yl]-but-1-enyl}-2-hydroxy-benzoylamino)-succinic acid]",122
6,CC(C)CCCC(C)[C@H]1CCC2C3CCC4C[C@@H](CCC=C(c5cc(Cl)c(OCc6ccc(C(=O)O)cc6)c(C(=O)O)c5)c5cc(Cl)c(OCc6ccc(C(=O)O)cc6)c(C(=O)O)c5)CC[C@]4(C)C3CC[C@@]21C (stereo not given in full) [Cosalane analogue],22
7,CC(C)CCCC(C)[C@H]1CCC2C3CCC4C[C@@H](CCC=C(c5cc(Cl)c(OCc6cccc(C(=O)O)c6)c(C(=O)O)c5)c5cc(Cl)c(OCc6cccc(C(=O)O)c6)c(C(=O)O)c5)CC[C@]4(C)C3CC[C@@]21C (stereo not given in full) [Cosalane analogue],> 29
8,CC(C)CCCC(C)[C@H]1CCC2C3CCC4C[C@@H](CCC=C(c5cc(Cl)c(OCc6ccccc6C(=O)O)c(C(=O)O)c5)c5cc(Cl)c(OCc6ccccc6C(=O)O)c(C(=O)O)c5)CC[C@]4(C)C3CC[C@@]21C (stereo not given in full) [Cosalane analogue],> 37
9,COc1ccc(C(=O)Nc2cc(C(=CCC[C@H]3CC[C@@]4(C)C(CCC5C4CC[C@@]4(C)C5CC[C@@H]4C(C)CCCC(C)C)C3)c3cc(NC(=O)c4ccc(OC)c(C(=O)O)c4)c(OC)c(C(=O)O)c3)cc(C(=O)O)c2OC)cc1C(=O)O (stereo not given in full) [Cosalane analogue],> 66

# Next, values leading:
row,EC50 [µM],Structure (SMILES)
1,73,"CC(C)CCCC(C)[C@H]1CCC2C3CCC4C[C@@H](CCCC(c5cc(Cl)c(O)c(C(=O)N[C@@H](CCC(=O)O)C(=O)O)c5)c5cc(Cl)c(O)c(C(=O)N[C@@H](CCC(=O)O)C(=O)O)c5)CC[C@]4(C)C3CC[C@@]21C (stereo not given in full) [2-(3-Chloro-5-{1-[3-chloro-5-(1,3-dicarboxy-propylcarbamoyl)-4-hydroxy-phenyl]-4-[17-(1,5-dimethyl-hexyl)-10,13-dimethyl-hexadecahydro-cyclopenta[a]phenanthren-3-yl]-butyl}-2-hydroxy-benzoylamino)-pentanedioic acid]"
2,> 62,"CC(C)CCCC(C)[C@H]1CCC2C3CCC4C[C@@H](CCC=C(c5cc(Cl)c(O)c(C(=O)N[C@@H](Cc6ccccc6)C(=O)O)c5)c5cc(Cl)c(O)c(C(=O)N[C@@H](Cc6ccccc6)C(=O)O)c5)CC[C@]4(C)C3CC[C@@]21C (stereo partly drawn) [2-(5-{1-{3-[1-carboxy-2-phenyl-(1S)-ethylcarbamoyl]-5-chloro-4-hydroxyphenyl}-4-[1-(1,5-dimethylhexyl)-9a,11a-dimethylperhydrocyclopenta[a]phenanthren-7-yl]-1-butenyl}-3-chloro-2-hydroxyphenylcarboxamido)-3-phenyl-(2S)-propanoic acid]"
3,> 100,"CC(C)CCCC(C)[C@H]1CCC2C3CCC4C[C@@H](CCC=C(c5cc(Cl)c(OCc6ccc(-c7ccc(C(=O)O)cc7)cc6)c(C(=O)O)c5)c5cc(Cl)c(OCc6ccc(-c7ccc(C(=O)O)cc7)cc6)c(C(=O)O)c5)CC[C@]4(C)C3CC[C@@]21C (stereo partly drawn) [3'',3'''-Dichloro-5'',5'''-dicarboxy-4'',4'''-di[p-(4-carboxy-phenyl)benzyloxy]-4',4'-diphenyl-3beta-(3'-buten-1-yl)cholestane]"
4,83.8,"CC(C)CCCC(C)[C@H]1CCC2C3CCC4C[C@@H](CCC=C(c5cc(Cl)c(OCc6ccc(CC(=O)O)cc6)c(C(=O)O)c5)c5cc(Cl)c(OCc6ccc(CC(=O)O)cc6)c(C(=O)O)c5)CC[C@]4(C)C3CC[C@@]21C (stereo partly drawn) [3'',3'''-Dichloro-5'',5'''-dicarboxy-4'',4'''-di[p-(carboxymethyl)benzyloxy]-4',4'-diphenyl-3beta-(3'-buten-1-yl)cholestane]"
5,70.4,"CC(C)CCCC(C)[C@H]1CCC2C3CCC4C[C@@H](CCCC(c5cc(Cl)c(OCc6ccc(C(=O)O)cc6)c(C(=O)O)c5)c5cc(Cl)c(OCc6ccc(C(=O)O)cc6)c(C(=O)O)c5)CC[C@]4(C)C3CC[C@@]21C (stereo partly drawn) [3'',3'''-Dichloro-5'',5'''-dicarboxy-4'',4'''-di[p-carboxybenzyloxy]-4',4'-diphenyl-3beta-(1-butyl)cholestane]"
6,19.9,COc1c(Cl)cc(Cc2cc(C(=CCC[C@H]3CC[C@@]4(C)C(CCC5C4CC[C@@]4(C)C5CC[C@@H]4C(C)CCCC(C)C)C3)c3cc(Cc4cc(Cl)c(OC)c(C(=O)O)c4)c(OC)c(C(=O)O)c3)cc(C(=O)O)c2OC)cc1C(=O)O (stereo not given in full) [Cosalane analogue]
